Measured values reported in patent US9750761B2, “LDH inhibitors as treatment for fibrosis and fibrotic-related disorders” (University of Rochester, priority 2014, dated 2017).

How the values were obtained:
[1] = test system: primary human lung fibroblasts; assay: Radiation-induced myofibroblast differentiation (α-SMA, LDHA Western blot); type: cell-based; settings: SB431542 2.5 μM from 1 hour before 7 Gy, 5 days post radiation
Protocol: Cell Culture and Irradiations: Fibroblasts were cultured in Eagle's minimum essential media (Life Technologies, Gaithersburg, Md.) supplemented with 10% FBS (Sigma Aldrich, St. Louis, Mo.), 2 mM L-Glutamine, antibiotic and antimycotic (Gibco, Carlsbad, Calif.) at 37° C. with 7% CO2. Cells were irradiated with a ^137Cs γ-ray source at approximately 2.70 cGy/min dose rate at indicated doses. Human recombinant TGF-β1 (R&D systems, Minneapolis, Minn.) was used at 1 ng/ml. […] TGF-β1 receptor 1 was inhibited using SB431542 (Sigma Aldrich) at 2.5 μM starting 1 hour prior to irradiations.
Western Blotting: Cell lysates were run on SDS-PAGE under reducing conditions and probed for expression of α-SMA (Sigma Aldrich), LDHA (Abcam, Cambridge, Mass.). Glyceraldehyde 3-phosphate dehydrogenase (Abcam) was used as a loading control.

[2] = test system: primary human lung fibroblasts; assay: Alamar blue assay; type: cell-based; settings: 72 hours
Protocol: Alamar blue assay: Fibroblasts were cultured with and without TGF-β and/or gossypol for 72 hours and subsequently incubated with Alamar blue (Invitrogen, Grand Island, N.Y.). Alamar blue incorporation was determined by spectrophotometric analysis per the manufacturer's protocol.
Based on the foregoing results, it was believed that gossypol inhibits endogenous LDH activity, thus reducing lactate production and subsequent lactate-dependent activation of latent TGF-β in the medium. To investigate the mechanism of action of gossypol, fibroblasts were first treated with TGF-β for 72 hours. Next, protein lysates were harvested and incubated with increasing concentrations of gossypol for one hour. The LDH activity of each lysate was then determined with a standardized LDH kinetic activity assay. […] Next, it was investigated whether gossypol could prevent the extracellular accumulation of lactate by treated fibroblasts. […] To confirm that gossypol inhibits extracellular accumulation of lactate, the rate of extracellular acidification was measured using the commercially available Seahorse Bioassay. […] To determine whether the effects of gossypol were dependent on toxic effects on the cells, the Alamar blue assay was utilized.

## NC(=O)c1ccc(-c2nc(-c3ccc4c(c3)OCO4)c(-c3ccccn3)[nH]2)cc1 [SB431542]
[1]
  radiation-induced α-SMA expression: significantly attenuated radiation-induced α-SMA expression

## Cc1cc2c(C(C)C)c(O)c(O)c(C=O)c2c(O)c1-c1c(C)cc2c(C(C)C)c(O)c(O)c(C=O)c2c1O [gossypol]
[2]; 1 mM gossypol
  Alamar blue reduction: no significant effect on Alamar blue reduction
[2]; 5 mM gossypol
  Alamar blue reduction: no significant effect on Alamar blue reduction
[2]; 10 mM gossypol
  decrease in Alamar blue reduction: 50%
